Like-named read-outs stand apart in the source and are kept apart here.
Key:
plasma proteins = experiment: Plasma protein binding; format: in vitro ADME
[1] = format: in vivo; conditions: human, plasma, oral, at 6 weeks, read-out: Omecamtiv mecarbil PK value (plasma concentration), median
[2] = tested on: patients with or without AFF; format: in vivo; conditions: for Troponin I increase: at 6 weeks; for Treatment effect on primary outcome by AFF at baseline: multivariable covariate-interaction model
[3] = tested on: patients with HFrEF by baseline SBP; format: in vivo
Text: Systolic blood pressure (SBP) is a major predictor of outcomes in patients with heart failure and reduced ejection fraction (HFrEF). […] This trial provided data on the efficacy and tolerability of omecamtiv mecarbil according to baseline SBP values. In contrast to other HFrEF therapies, which may not be tolerated in patients with low baseline blood pressure (e.g., <100 mmHg), the present study was able to enroll patients with SBP at baseline of 85 mmHg or greater.
The 8232 randomized patients were subdivided according to SBP at baseline: <100 mmHg (n=1473), 101-110 mmHg (n=1734), 111-120 mmHg (n=1824), 121-130 mmHg (n=1627), and >130 mmHg (n=1574). Significant differences between these subgroups were found with respect of multiple baseline characteristics. The primary composite endpoint occurred in 715 (48.5%), 682 (39.3%), 679 (37.2%), 556 (34.2%), and 498 (31.6%) patients in each SBP subgroup, respectively. Hazard ratios (HRs) and 95% confidence intervals (CIs) for the treatment effect on the primary outcome were of 0.81, 0.70-0.94; 0.88, 0.76-1.03; 1.03, 0.88-1.19; 0.87, 0.73-1.03; and 1.07, 0.90-1.28 in each SBP subgroup, respectively.

COC(=O)N1CCN(Cc2cccc(NC(=O)Nc3ccc(C)nc3)c2F)CC1 [omecamtiv mecarbil]
Binding to plasma proteins (plasma proteins): 81.5%
Concentration dependence of protein binding (plasma proteins; result in words): independent of drug concentration up to 4000 ng/mL
concentration at 6 weeks ([1]; patients not taking digoxin): 0.28 µg/mL
concentration at 6 weeks ([1]; patients taking digoxin): 0.286 µg/mL
Troponin I increase ([2]; patients in AFF at baseline not taking digoxin): +45%
Troponin I increase ([2]; patients in AFF at baseline taking digoxin): +29%
Treatment effect on primary outcome by AFF at baseline ([2]; result in words): greater benefit observed in patients not in AFF
Treatment effect on primary outcome by AFF at baseline ([2]; result in words, listed as OM): patients without AFF deriving greater benefit
Serious adverse events, events ([2]; per 2974 patients, over the course of the study (FIG. 21E)): 55 events
Treatment effect modification by AFF according to digoxin use ([2]; result in words): significantly more pronounced in digoxin users than in non-users
Primary outcome, hazard ratio for the treatment effect ([3]; baseline SBP 101-110 mmHg (n=1734)): 0.88
Primary outcome, hazard ratio for the treatment effect ([3]; baseline SBP 111-120 mmHg (n=1824)): 1.03
Primary outcome, hazard ratio for the treatment effect ([3]; baseline SBP 121-130 mmHg (n=1627)): 0.87
Primary outcome, hazard ratio for the treatment effect ([3]; baseline SBP <100 mmHg (n=1473)): 0.81
Primary outcome, hazard ratio for the treatment effect ([3]; baseline SBP >130 mmHg (n=1574)): 1.07

Source: patent US12194039B2, “Methods of treating heart failure by administering omecamtiv mecarbil” (Cytokinetics, Inc., priority 2020, dated 2025)
